From patent publication US8420657B2 (Novartis AG, priority 2008, dated 2013)

Assays:
[1] = target: T1, GST-JAK2(808-1132) (Homo sapiens, UniProt O60674); experiment: JAK2 kinase assay (Caliper mobility shift, LabChip 3000); format: biochemical
T1 construct: GST-JAK2(808-1132); purchased Invitrogen (Carlsbad, USA) #4288
Outline: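 Eight-point compound series (final 10–0.003 μM) tested on purchased GST-JAK2 kinase domain (808-1132). Peptide FITC-JAK3tide plus ATP reacted 60 min, 30 °C, then quenched with EDTA; turnover from charge-based separation of substrate and product.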

[2] = tested on: JAK1/JAK2-dependent nuclear translocation of STAT1-GFP in HT1080 fibrosarcoma cells; experiment: STAT1 nuclear translocation assay (Cellomics), IFN-γ stimulated HT1080 STAT1-GFP cells; format: cell-based
Text: The medium-throughput (96-well format) cellular automated fluorescence microscopy Cellomics assay can be routinely used to assess the functional activation of Janus Kinases (JAKs), based on the nuclear translocation of their substrate, Signal Transducer and Activator of Transcription (STAT). Nuclear translocation can be monitored either in HT1080 fibrosarcoma cells stably transfected with STAT1 fused to Green Fluorescence Protein (GFP) or in U-2 OS osteosarcoma cells stably transfected with STAT5 fused to Green Fluorescence Protein (GFP). Stimulation of HT1080 cells with interferon-γ (IFN-γ) results in JAK1/JAK2-dependent nuclear translocation of STAT1-GFP, whereas stimulation of U-2 OS cells with recombinant human erythropoietin (rhEpo) results in JAK2-dependent nuclear translocation of STAT5-GFP, both of which can be quantified using the Cellomics Cyto/NucTrans software package. This assay may be used to provide an assessment of the nuclear-cytoplasmic differential (NCD) of STAT-GFP using Hoechst dye to define the boundaries of the nucleus.
HT1080 fibrosarcoma cells may be obtained from ATCC and can be cultured in alpha Modified Eagle Medium with 10% FCS. Cells can be transfected with pEGFP-N2 STAT1 using Fugene 6 Transfection Reagent following the manufacturers' protocol. 24 hours after transfection the medium can be replaced and selected in 1 mg/ml Geneticin.
Compounds can be dissolved in DMSO to a final stock concentration of 10 mM and stored as aliquots at 4° C. Compounds may be pre-diluted in 100% DMSO at 10 mM, 3 mM 1 mM, 0.3 mM, 0.1 mM, 0.03 mM, 0.01 mM and 0.003 mM. Subsequently, compounds may be diluted in medium and added in 50 μl to the cells. The final compound concentrations tested may be 10 μM, 3 μM 1 μM, 0.3 μM, 0.1 μM, 0.03 μM, 0.01 μM and 0.003 μM and the final DMSO concentration can be 0.1%.
HT1080 STAT1-GFP cells may be seeded at a density of 10,000 cells per well in clear-bottom black 96-well Packard View-Plates™. 16-24 hours later, the cells can be treated for 2 hours with 100 ng/ml IFN-γ, washed twice in pre-warmed PBS and fixed in 200 μl of pre-warmed fixation solution (PBS, 3.7% Formaldehyde) for 10 minutes. The plates may be washed twice in 200 μl PBS and incubated, protected from light, in 100 μl of DNA-staining solution (PBS, 0.5 μg/ml Hoechst-33342) for 1 minute. The plates may then be washed once in PBS, and 200 μl PBS finally added per well. The plates, being finally covered with a black adhesive, may be either read directly or stored at 4° C. for later imaging. Where appropriate, the compounds may be added 30 min before stimulation with IFN-γ.
The plates can be read on a Cellomics® ArrayscanII automated fluorescence microscope plate reader equipped with a Mercury-Xenon white light illumination source and a Zeiss Axiovert inverted microscope, using the XF100 dichroic/emission filter cube and matching excitation filters, 10× magnification, and a 0.3 numerical aperture objective. Image acquisition and analysis can be performed using a customized protocol based on the ‘NuclearTranslocation’ Bioapplication. For each well, multiple images (fields) can be acquired until a minimum of 1000 cells are counted using two 2 channels: Channel 1 (Hoechst)=focus+nuclear mask, Channel 2 (GFP)=signal quantification in mask areas as outlined below. Nuclei may be first identified based on the Hoechst staining and a mask generated for each nucleus that then serves as a template to generate a circle (eroded inwards by 1 pixel) and a 3 pixel-wide collar-like ring (off-set outwards by 1 pixel), in which the nuclear and cytoplasmic intensity of GFP, respectively, are quantified in the corresponding channel. High content analysis yields numerous measurements per cell and the GFP intensity differential between the nuclear and the cytoplasmic masks may be chosen as a measure of sub-cellular STAT-GFP relocation. The resulting values may be averaged for all cells in the well to return a single measurement plus standard deviation. […]

[3] = Homo sapiens, HT-1080, STAT1 translocation pathway

T1 sequence (O60674 808-1132): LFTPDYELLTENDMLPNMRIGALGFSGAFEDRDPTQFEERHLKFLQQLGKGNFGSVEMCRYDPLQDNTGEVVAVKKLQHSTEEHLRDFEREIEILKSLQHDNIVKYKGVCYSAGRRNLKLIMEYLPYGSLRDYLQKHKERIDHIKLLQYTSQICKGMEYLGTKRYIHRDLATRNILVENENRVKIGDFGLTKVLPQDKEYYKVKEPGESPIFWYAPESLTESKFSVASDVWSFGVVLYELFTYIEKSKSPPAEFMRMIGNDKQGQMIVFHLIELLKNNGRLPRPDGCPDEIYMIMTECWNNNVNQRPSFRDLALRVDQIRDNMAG

SMILES	IC50 [1]	IC50 [2, 3]	IC50 ([2]; STAT1 translocation pathway)
CCN1CCCC1CNC(=O)c1ccc(Nc2ncc3ccn(-c4ccc(S(C)(=O)=O)cc4)c3n2)cc1 (stereo not drawn) [Example 68, N-(1-Ethyl-pyrrolidin-2-ylmethyl)-4-[7-(4-methanesulfonyl-phenyl)-7H-pyrrolo[2,3-d]pyrimidin-2-ylamino]-benzamide]	< 3 nM	105 nM	
CN1CCN(C(=O)Cc2cccc(Nc3ncc4ccn(-c5ccc(S(C)(=O)=O)cc5)c4n3)c2)CC1 [Example 70, 2-{3-[7-(4-Methanesulfonyl-phenyl)-7H-pyrrolo[2,3-d]pyrimidin-2-ylamino]-phenyl}-1-(4-methyl-piperazin-1-yl)-ethanone]	5.6 nM	275 nM	
CN1CCN(C(=O)c2ccc(Nc3ncc4ccn(-c5ccc(S(C)(=O)=O)cc5)c4n3)cc2F)CC1 [Example 71, {2-Fluoro-4-[7-(4-methanesulfonyl-phenyl)-7H-pyrrolo[2,3-d]pyrimidin-2-ylamino]-phenyl}-(4-methyl-piperazin-1-yl)-methanone]	6.8 nM	362 nM	
CN1CCN(C(=O)c2ccc(Nc3ncc4ccn(-c5ccc(S(C)(=O)=O)cc5)c4n3)cc2C(F)(F)F)CC1 [Example 72, {4-[7-(4-Methanesulfonyl-phenyl)-7H-pyrrolo[2,3-d]pyrimidin-2-ylamino]-2-trifluoromethyl-phenyl}-(4-methyl-piperazin-1-yl)-methanone]	3.7 nM	750 nM	
Cc1cc(Nc2ncc3ccn(-c4ccc(S(C)(=O)=O)cc4)c3n2)ccc1C(=O)N1CCN(C)CC1 [Example 73, {4-[7-(4-Methanesulfonyl-phenyl)-7H-pyrrolo[2,3-d]pyrimidin-2-ylamino]-2-methyl-phenyl}-(4-methyl-piperazin-1-yl)-methanone]	< 3 nM	80.5 nM	
Cc1cc(Nc2ncc3ccn(-c4ccc(S(C)(=O)=O)cc4)c3n2)ccc1C(=O)N1CCOCC1 [Example 74, {4-[7-(4-Methanesulfonyl-phenyl)-7H-pyrrolo[2,3-d]pyrimidin-2-ylamino]-2-methyl-phenyl}-morpholin-4-yl-methanone]	< 3 nM	75.5 nM	
Cc1cc(Nc2ncc3ccn(-c4ccc(S(C)(=O)=O)cc4)c3n2)ccc1C(=O)N1CCCC1 [Example 75, {4-[7-(4-Methanesulfonyl-phenyl)-7H-pyrrolo[2,3-d]pyrimidin-2-ylamino]-2-methyl-phenyl}-pyrrolidin-1-yl-methanone]	< 3 nM	82.5 nM	
CN1CCN(C(=O)c2cc(Nc3ncc4ccn(-c5ccc(S(C)(=O)=O)cc5)c4n3)ccc2F)CC1 [Example 76, {2-Fluoro-5-[7-(4-methanesulfonyl-phenyl)-7H-pyrrolo[2,3-d]pyrimidin-2-ylamino]-phenyl}-(4-methyl-piperazin-1-yl)-methanone]	38 nM	934 nM	
CS(=O)(=O)c1ccc(-n2ccc3cnc(Nc4ccc(F)c(C(=O)N5CCOCC5)c4)nc32)cc1 [Example 77, {2-Fluoro-5-[7-(4-methanesulfonyl-phenyl)-7H-pyrrolo[2,3-d]pyrimidin-2-ylamino]-phenyl}-morpholin-4-yl-methanone]	38 nM	2620 nM	
CCN1CCCC1CNC(=O)c1cc(Nc2ncc3ccn(-c4ccc(S(C)(=O)=O)cc4)c3n2)ccc1F (stereo not drawn) [Example 78, N-(1-Ethyl-pyrrolidin-2-ylmethyl)-2-fluoro-5-[7-(4-methanesulfonyl-phenyl)-7H-pyrrolo[2,3-d]pyrimidin-2-ylamino]-benzamide]	29 nM	545 nM	
CC(=O)c1ccc(Nc2ncc3ccn(-c4ccc(S(C)(=O)=O)cc4)c3n2)cc1 [Example 79, 1-{4-[7-(4-Methanesulfonyl-phenyl)-7H-pyrrolo[2,3-d]pyrimidin-2-ylamino]-phenyl}-ethanone]	4.8 nM	257 nM	
CS(=O)(=O)c1ccc(-n2ccc3cnc(Nc4ccc(F)c(C(F)(F)F)c4)nc32)cc1 [Example 80, (4-Fluoro-3-trifluoromethyl-phenyl)-[7-(4-methanesulfonyl-phenyl)-7H-pyrrolo[2,3-d]pyrimidin-2-yl]-amine]	430 nM	10000 nM	
Cc1cc(Nc2ncc3ccn(-c4ccc(S(C)(=O)=O)cc4)c3n2)ccc1F [Example 81, (4-Fluoro-3-methyl-phenyl)-[7-(4-methanesulfonyl-phenyl)-7H-pyrrolo[2,3-d]pyrimidin-2-yl]-amine]	18 nM	2700 nM	
CC(C)Oc1ccc(Nc2ncc3ccn(-c4cc(F)c(C(=O)N5CCOCC5)c(F)c4)c3n2)cc1 [Example 82, {2,6-Difluoro-4-[2-(4-isopropoxy-phenylamino)-pyrrolo[2,3-d]pyrimidin-7-yl]-phenyl}-morpholin-4-yl-methanone]	4.1 nM	860 nM	
CC(C)Oc1ccc(Nc2ncc3ccn(-c4ccc(C(C)(C)C(=O)N5CCOCC5)cc4)c3n2)cc1 [Example 83, 2-{4-[2-(4-Isopropoxy-phenylamino)-pyrrolo[2,3-d]pyrimidin-7-yl]-phenyl}-2-methyl-1-morpholin-4-yl-propan-1-one]	< 3 nM	460 nM	
CC(C)Oc1ccc(Nc2ncc3ccn(-c4ccc(C5(C(=O)N6CCOCC6)CC5)cc4)c3n2)cc1 [Example 84, (1-{4-[2-(4-Isopropoxy-phenylamino)-pyrrolo[2,3-d]pyrimidin-7-yl]-phenyl}-cyclopropyl)-morpholin-4-yl-methanone]	< 3 nM	275 nM	
CC(C)Oc1ccc(Nc2ncc3ccn(-c4ccc(C(=O)N5CCN(C)CC5)c(F)c4)c3n2)cc1 [Example 85, {2-Fluoro-4-[2-(4-isopropoxy-phenylamino)-pyrrolo[2,3-d]pyrimidin-7-yl]-phenyl}-(4-methyl-piperazin-1-yl)-methanone]	3.8 nM	3500 nM	
CC(=O)c1ccc(-n2ccc3cnc(Nc4ccc(OC(C)C)cc4)nc32)cc1 [Example 86, 11-{4-[2-(4-Isopropoxy-phenylamino)-pyrrolo[2,3-d]pyrimidin-7-yl]-phenyl}-ethanone]	8 nM	13000 nM	
CS(=O)(=O)c1ccc(-n2ccc3cnc(Nc4ccc(C(=O)N5CCNCC5)cc4)nc32)cc1 [Example 87, {4-[7-(4-Methanesulfonyl-phenyl)-7H-pyrrolo[2,3-d]pyrimidin-2-ylamino]-phenyl}-piperazin-1-yl-methanone]	3.8 nM	18300 nM	
Cc1cc(Nc2ncc3ccn(-c4ccc(C(=O)N5CCN(C)CC5)c(F)c4)c3n2)ccc1F [Example 88, {2-Fluoro-4-[2-(4-fluoro-3-methyl-phenylamino)-pyrrolo[2,3-d]pyrimidin-7-yl]-phenyl}-(4-methyl-piperazin-1-yl)-methanone]	8.9 nM	3270 nM	
Cc1cc(Nc2ncc3ccn(-c4cc(F)c(C(=O)N5CCOCC5)c(F)c4)c3n2)ccc1F [Example 89, {2,6-Difluoro-4-[2-(4-fluoro-3-methyl-phenylamino)-pyrrolo[2,3-d]pyrimidin-7-yl]-phenyl}-morpholin-4-yl-methanone]	< 3 nM		410 nM
